Reference: patent US20060223780A1, “Method for administration of capecitabine” (priority 2005, published 2006)

Tests used:
[1] = approved dose and schedule of capecitabine; cited from earlier work
[2] = test system: MX-1; conditions: cited from earlier work
[3] = test system: MAXF 401; conditions: cited from earlier work
[4] = test system: tumor; assay: Experiment 2: schedules at the same daily dosages (survival, tumor volume, body weight); format: in vivo
Source text: Following is the design of the final experiment with the schedules and dosages used (Table 2): […]

[5] = test system: tumor; assay: Experiment 2 data: Gompertzian growth / drug effect (DE) population modelling with NONMEM; format: in vivo; conditions: for time of maximal DE after start of treatment, average / time of maximal DE after start of treatment, range: individual data; for time of maximal drug effect (DE) after start of treatment / Day on which the drug effect (DE) is maximal, F'(x)≈0: pooled data; for Day on which the drug effect (DE) is maximal, F'(x)≈0: start of treatment day 17
Protocol: Therefore, the data were then analyzed for the approved (14/7) chemotherapy drug schedule by measuring at each time point after the initiation of therapy the ratio of the (data-derived) expected Gompertzian growth rate in the unperturbed (control) state compared with that observed in the treated state. Curve-fitting was performed by non-linear mixed-effect population modeling using NONMEM software.
The Analysis performed used a non-linear mixed effects population modelling approach with the NONMEM software:
A) with the Gompertzian growth model (TV: tumor volume): • dTV/dt=α*TV−((α/log(TVinf))*TV*log(TV))
B) and the drug effect (DE) model • dTV/dt=α*TV−((α/log(TVinf)*TV*log(TV))*(1−DE)

[6] = Schedule C (2 d on, 5 d off), even at the lowest daily dosages
[7] = non toxic doses, compared between schedules, p.o.

CCCCCOC(=O)Nc1nc(=O)n([C@@H]2O[C@H](C)[C@@H](O)[C@H]2O)cc1F [capecitabine, 5′-deoxy-5-fluoro-N-[(pentyloxy)-carbonyl]-cytidine]
median time to onset of hand-foot syndrome [1]: about 79 days
toxicity (death of mice) [2, 6]: most of the mice died
antitumor efficacy (tumor growth inhibition after 6 weeks of treatment) [2, 7]: equivalent
toxicity (death of mice) [3, 6]: most of the mice died
antitumor efficacy (tumor growth inhibition after 6 weeks of treatment) [3, 7]: equivalent
toxicity ([4]; higher 2 dose levels, 14 days of treatment compared to shorter treatment durations (dose comparison, Tables 4-1, 4-2)): increased levels of toxicity
safety profile ([4]; higher daily dosage, reduced number of treatment days, reintroduced after a rest period): same or a better safety profile
toxicity ([4]; higher dose levels 24, 14 days of treatment compared to shorter treatment durations (schedule comparison, Tables 5-1, 5-2)): increased levels of toxicity
survival curves ([4]; lower 2 dose ranges, 14 days on/7 days off vs 7 days on/7 days off): similar
efficacy (tumor volume), schedule comparison at the same daily dosages ([4]; lowest dose level): advantage in efficacy towards the 14 days on/7 days off schedule
efficacy ([4]; schedules with a fewer number of treatment days, at higher dose levels): higher efficacy
tumor volume reduction ([4]; two lowest dose levels, 14 days on/7 days off vs 7 days on/7 days off): similar
time of maximal DE after start of treatment, average ([5]; 1.5 mmol/kg/day): 8.3 days
time of maximal DE after start of treatment, range ([5]; 1.5 mmol/kg/day): 6 to 11 days
time of maximal drug effect (DE) after start of treatment ([5]; 1.5 mmol/kg/day): 10 days
Day on which the drug effect (DE) is maximal, F'(x)≈0 ([5]; 1.5 mmol/kg/day): 27
time of maximal DE after start of treatment, average ([5]; 2.25 mmol/kg/day): 10.1 days
time of maximal DE after start of treatment, range ([5]; 2.25 mmol/kg/day): 5 to 18 days
time of maximal drug effect (DE) after start of treatment ([5]; 2.25 mmol/kg/day): 8 days
Day on which the drug effect (DE) is maximal, F'(x)≈0 ([5]; 2.25 mmol/kg/day): 25
time point of maximum impact of treatment (averages), into therapy ([5]; all dose levels analyzed, 14/7 schedule): 8.3 to 10.1 days
